This assay concerns the target T1, androgen receptor (AR) (Rattus norvegicus, UniProt P15207).
T1 construct: Ventral prostates were obtained form rats castrated 24 h prior to sacrifice; from tissue; host or cells: rat ventral prostate cytosol (castrated rats, charcoal-treated)
T1 sequence (P15207 1-902): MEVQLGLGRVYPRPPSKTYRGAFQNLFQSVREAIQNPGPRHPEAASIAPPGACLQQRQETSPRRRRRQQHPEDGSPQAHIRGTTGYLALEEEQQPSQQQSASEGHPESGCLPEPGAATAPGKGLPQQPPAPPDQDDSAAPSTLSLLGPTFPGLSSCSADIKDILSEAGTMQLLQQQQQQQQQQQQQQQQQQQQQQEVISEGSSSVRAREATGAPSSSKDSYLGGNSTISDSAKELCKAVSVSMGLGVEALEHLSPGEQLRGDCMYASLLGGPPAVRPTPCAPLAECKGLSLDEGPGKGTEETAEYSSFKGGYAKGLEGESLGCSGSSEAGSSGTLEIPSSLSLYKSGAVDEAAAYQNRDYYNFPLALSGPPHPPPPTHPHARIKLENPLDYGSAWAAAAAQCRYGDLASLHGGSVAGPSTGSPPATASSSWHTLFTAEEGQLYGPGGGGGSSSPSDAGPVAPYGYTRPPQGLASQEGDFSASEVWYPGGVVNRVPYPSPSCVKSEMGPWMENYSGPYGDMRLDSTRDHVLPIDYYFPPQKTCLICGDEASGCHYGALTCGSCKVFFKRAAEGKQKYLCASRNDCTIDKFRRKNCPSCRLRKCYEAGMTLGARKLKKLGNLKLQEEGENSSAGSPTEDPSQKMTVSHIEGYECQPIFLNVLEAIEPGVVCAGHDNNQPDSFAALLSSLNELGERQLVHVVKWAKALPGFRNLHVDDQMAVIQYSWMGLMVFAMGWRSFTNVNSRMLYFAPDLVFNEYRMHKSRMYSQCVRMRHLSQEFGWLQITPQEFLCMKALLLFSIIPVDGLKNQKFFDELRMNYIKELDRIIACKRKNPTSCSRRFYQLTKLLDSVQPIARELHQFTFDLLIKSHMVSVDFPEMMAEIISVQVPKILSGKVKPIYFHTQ
Put plainly: AR binding assay, competition with [3H]-mibolerone binding in rat ventral prostate cytosol. Particulars: 1 nM [3H]-mibolerone, overnight at 0° C. As to the method: Ventral prostates were obtained form rats castrated 24 h prior to sacrifice. Fresh prostate was minced and washed with Buffer A (Schilling and Liao, Prostate, 5:581-588, 1984). The minces were then homogenized in 3× volume of Buffer A containing protease inhibitors (Complete, Mini, EDTA-free Roche). The homogenate was centrifuged at 30000 g for 30 min. The resultant supernatants were treated with 1×volume of dextran-coated charcoal solution (12.5 g activated charcoal, 12.5 g dextran per liter of buffer A) to remove endogenous steroids. The samples were incubated for 5 min and centrifuged at 16000 g for 10 min. Aliquots of the charcoal-treated cytosol were taken for androgen receptor assays. All procedures were carried out at 0-4° C.
Cytosol androgen receptor concentration was determined as described (Isomaa et al., Endocrinology, 111: 833-843, 1982) with minor modifications. Cytosol preparations were prepared as described above, and bound and free steroids were separated by treatment with an equal volume of dextran-charcoal suspension for 5 min at 4° C. followed by centrifugation at 16000 g for 10 min. Bound radioactivity was determined by counting supernatant fractions in 1 ml of OptiPhase HiSafe3 or OptiPhase Supermix (PerkinElmer).
Cytosol preparations were labelled with 1 nM [^3H]-mibolerone overnight at 0° C. (total). To determine AR binding activity of the compounds of the present invention (test compounds), the ability of test compounds to compete with [^3H]7α,17α-dimethyl-17β-hydroxy-4-estren-3-one ([^3H]-mibolerone) binding was studied. 1 nM [^3H]-mibolerone and test compounds in two concentrations (0.2 and 2 uM) were incubated overnight at 0° C. To determine non-specific binding, parallel incubations were carried out using 1 nM concentration [^3H]-mibolerone with 500-fold molar excess of unlabelled testosterone. Two to four replicates were used for each sample. After incubation, bound and free steroids were separated as described above and bound radioactivity was determined. The ability of the test compounds to bind AR is reported as reduction in bound radioactivity obtained with 1 nM [^3H]-mibolerone. The results (% inhibition) were calculated as: % inhibition=100−(100×(averagetest compound/averagetotal)).

SMILES strings stand for the structures.

What is called inhibition is the share of the control response that was lost under treatment. `Cc1cc(NC(=O)C(C)(O)COc2ccc(C(F)(F)F)cc2)ccc1[N+](=O)[O-]` (centres unmarked) [Example 15, 2-Hydroxy-2-methyl-N-(3-methyl-4-nitrophenyl)-3-(4-trifluoromethylphenoxy)propionamide]: the inhibition at 0.2 µM (test compound 0.2 μM) was 46%. This compound also displayed an inhibition at 2 µM (test compound 2.0 μM) of 77%.

Consider `CC(=O)c1ccc(OCC(C)(O)C(=O)Nc2ccc([N+](=O)[O-])c(C)c2)cc1` (centres unmarked) [Example 16, 3-(4-Acetylphenoxy)-2-hydroxy-2-methyl-N-(3-methyl-4-nitrophenyl)propionamide], for which the inhibition at 0.2 µM (test compound 0.2 μM) was determined as 50%. Further, the inhibition at 2 µM (test compound 2.0 μM) was 91%.

`Cc1cc(NC(=O)C(C)(O)COc2ccc(C#N)cc2)ccc1[N+](=O)[O-]` (centres unmarked) [Example 17, 3-(4-Cyanophenoxy)-2-hydroxy-2-methyl-N-(3-methyl-4-nitrophenyl)propionamide]: for the setting “test compound 0.2 μM”, 0.2 µM produced 95% inhibition. Further, at 2 µM the inhibition (test compound 2.0 μM) was 98%.

`Cc1cc(NC(=O)C(C)(O)COc2cccc(F)c2)ccc1[N+](=O)[O-]` (centres unmarked) [Example 18, 3-(3-Fluorophenoxy)-2-hydroxy-2-methyl-N-(3-methyl-4-nitrophenyl)propionamide]: for the setting “test compound 0.2 μM”, the inhibition at 0.2 µM is 90%. This compound also showed an inhibition at 2 µM (test compound 2.0 μM) of 99%.

As for `Cc1cc(NC(=O)C(C)(O)COc2ccccc2F)ccc1[N+](=O)[O-]` (centres unmarked) [Example 19, 3-(2-Fluorophenoxy)-2-hydroxy-2-methyl-N-(3-methyl-4-nitrophenyl)propionamide], testing at 0.2 µM (test compound 0.2 μM) gave an inhibition of 83%. Also, where the note is “test compound 2.0 μM”, 2 µM produced 99% inhibition.

Take `Cc1cc(NC(=O)C(C)(O)COc2ccc(CCO)cc2)ccc1[N+](=O)[O-]` (centres unmarked) [Example 20, 2-Hydroxy-3-[4-(2-hydroxyethyl)phenoxy]-2-methyl-N-(3-methyl-4-nitrophenyl)propionamide]: under “test compound 0.2 μM”, the inhibition at 0.2 µM amounted to 13%. Where the note is “test compound 2.0 μM”, this compound came in with an inhibition at 2 µM of 83%.

On to `Cc1cc(NC(=O)C(C)(O)COc2c(Cl)cccc2Cl)ccc1[N+](=O)[O-]` (centres unmarked) [Example 21, 3-(2,6-Dichlorophenoxy)-2-hydroxy-2-methyl-N-(3-methyl-4-nitrophenyl)propionamide], for which at 0.2 µM the inhibition (test compound 0.2 μM) was 26%. Testing at 2 µM (test compound 2.0 μM) gave an inhibition of 91%.

As for `Cc1cc(NC(=O)C(C)(O)COc2ccc(Cl)cc2)ccc1[N+](=O)[O-]` (centres unmarked) [Example 23, 3-(4-Chlorophenoxy)-2-hydroxy-2-methyl-N-(3-methyl-4-nitrophenyl)propionamide], 0.2 µM produced 88% inhibition (test compound 0.2 μM). In addition, at 2 µM the inhibition (test compound 2.0 μM) was 92%.

Regarding `Cc1cc(NC(=O)C(C)(O)COc2ccc(Br)cc2)ccc1[N+](=O)[O-]` (centres unmarked) [Example 24, 3-(4-Bromophenoxy)-2-hydroxy-2-methyl-N-(3-methyl-4-nitrophenyl)propionamide], for the setting “test compound 0.2 μM”, the inhibition at 0.2 µM is 75%. The compound further gave an inhibition at 2 µM (test compound 2.0 μM) of 93%.

Compound `COc1ccc(OCC(C)(O)C(=O)Nc2ccc([N+](=O)[O-])c(C)c2)cc1` (centres unmarked) [Example 25, 2-Hydroxy-3-(4-methoxyphenoxy)-2-methyl-N-(3-methyl-4-nitrophenyl)propionamide] returned an inhibition at 0.2 µM (test compound 0.2 μM) of 96%. The same compound gave an inhibition at 2 µM (test compound 2.0 μM) of 98%.

In the case of `Cc1cc(NC(=O)C(C)(O)COc2ccc3c(c2)OCO3)ccc1[N+](=O)[O-]` (centres unmarked) [Example 26, 3-(Benzo[1,3]dioxol-5-yloxy)-2-hydroxy-2-methyl-N-(3-methyl-4-nitrophenyl)propionamide], for the setting “test compound 0.2 μM”, at 0.2 µM the inhibition was 62%. Further, for the setting “test compound 2.0 μM”, at 2 µM the inhibition was 92%.

For `COc1ccc(OCC(C)(O)C(=O)Nc2ccc([N+](=O)[O-])c(C)c2)cc1OC` (centres unmarked) [Example 27, 3-(3,4-Dimethoxyphenoxy)-2-hydroxy-2-methyl-N-(3-methyl-4-nitrophenyl)propionamide], the inhibition at 0.2 µM (test compound 0.2 μM) was determined as 34%. Also, for the setting “test compound 2.0 μM”, testing at 2 µM gave an inhibition of 89%.

`Cc1cc(NC(=O)C(C)(O)COc2ccc(F)c(F)c2)ccc1[N+](=O)[O-]` (centres unmarked) [Example 28, 3-(3,4-Difluorophenoxy)-2-hydroxy-2-methyl-N-(3-methyl-4-nitrophenyl)propionamide] registered an inhibition at 0.2 µM (test compound 0.2 μM) of 90%. Moreover, at 2 µM the inhibition (test compound 2.0 μM) was 88%.

`Cc1cc(NC(=O)C(C)(O)COc2cc(C)c(Cl)c(C)c2Cl)ccc1[N+](=O)[O-]` (centres unmarked) [Example 29, 3-(2,4-Dichloro-3,5-dimethylphenoxy)-2-hydroxy-2-methyl-N-(3-methyl-4-nitrophenyl)propionamide] registered an inhibition at 0.2 µM (test compound 0.2 μM) of 92%. For the same compound, the inhibition at 2 µM (test compound 2.0 μM) turned out to be 90%.

As to `Cc1cc(NC(=O)C(C)(O)COc2ccc3cc(Br)ccc3c2)ccc1[N+](=O)[O-]` (centres unmarked) [Example 30, 3-(6-Bromonaphtalen-2-yloxy)-2-hydroxy-2-methyl-N-(3-methyl-4-nitrophenyl)-propionamide], under “test compound 0.2 μM”, the “Inhibition (%) of [3H]-mibolerone binding at 0.2 μM” value worked out at 80%. Also, the “Inhibition (%) of [3H]-mibolerone binding at 2.0 μM” value (test compound 2.0 μM) came to 99%.

`CC(=O)Nc1ccc(OCC(C)(O)C(=O)Nc2ccc([N+](=O)[O-])c(C)c2)cc1C(F)(F)F` (centres unmarked) [Example 31, 3-(4-Acetylamino-3-trifluoromethylphenoxy)-2-hydroxy-2-methyl-N-(3-methyl-4-nitrophenyl)propionamide]: testing at 0.2 µM (test compound 0.2 μM) gave an inhibition of 18%. The compound further registered an inhibition at 2 µM (test compound 2.0 μM) of 75%.

On to `Cc1cc(NC(=O)C(C)(O)COc2ccc(C(=O)c3ccc(Cl)cc3)cc2)ccc1[N+](=O)[O-]` (centres unmarked) [Example 36, 3-[4-(4-Chlorobenzoyl)phenoxy]-2-hydroxy-2-methyl-N-(3-methyl-4-nitrophenyl)propionamide], for which the inhibition at 0.2 µM (test compound 0.2 μM) stood at 3%. Moreover, the inhibition at 2 µM (test compound 2.0 μM) came out at 50%.

In the case of `Cc1cc(NC(=O)C(C)(O)COc2ccc(C#N)c(F)c2)ccc1[N+](=O)[O-]` (centres unmarked) [Example 42, 3-(4-Cyano-3-fluorophenoxy)-2-hydroxy-2-methyl-N-(3-methyl-4-nitrophenyl)propionamide], at 0.2 µM the inhibition (test compound 0.2 μM) was 83%. This compound also yielded an inhibition at 2 µM (test compound 2.0 μM) of 97%.

For the compound `Cc1cc(NC(=O)[C@@](C)(O)COc2ccc(C#N)c(F)c2)ccc1[N+](=O)[O-]` [Example 43, (2S)-3-(4-Cyano-3-fluorophenoxy)-2-hydroxy-2-methyl-N-(3-methyl-4-nitrophenyl)propionamide], testing at 0.2 µM (test compound 0.2 μM) gave an inhibition of 95%. In addition, the inhibition at 2 µM (test compound 2.0 μM) is 99%.

With `Cc1cc(NC(=O)C(C)(O)COc2ccc(Cl)c([N+](=O)[O-])c2)ccc1[N+](=O)[O-]` (centres unmarked) [Example 44, 3-(4-Chloro-3-nitrophenoxy)-2-hydroxy-2-methyl-N-(3-methyl-4-nitrophenyl)propionamide], for the setting “test compound 0.2 μM”, the inhibition at 0.2 µM was determined as 83%. The compound also yielded an inhibition at 2 µM (test compound 2.0 μM) of 100%.

Compound `CCOC(=O)Nc1ccc(OCC(C)(O)C(=O)Nc2ccc([N+](=O)[O-])c(C)c2)cc1F` (centres unmarked) [Example 50, {2-Fluoro-4-[2-hydroxy-2-(3-methyl-4-nitrophenylcarbamoyl)propoxy]-phenyl}carbamic acid ethyl ester] gave an inhibition at 0.2 µM (test compound 0.2 μM) of 96%. The inhibition at 2 µM (test compound 2.0 μM) worked out at 99%.

Consider `CC(O)(COc1ccc(C#N)c(F)c1)C(=O)Nc1ccc([N+](=O)[O-])c(CO)c1` (centres unmarked) [Example 51, 3-(4-Cyano-3-fluorophenoxy)-2-hydroxy-N-(3-hydroxymethyl-4-nitrophenyl)-2-methylpropionamide], for which the inhibition at 0.2 µM (test compound 0.2 μM) amounted to 73%. Moreover, the inhibition at 2 µM (test compound 2.0 μM) stood at 92%.

The values above are taken from patent US7390923B2, “Propionamide derivatives useful as androgen receptor modulators” (Orion Corporation, priority 2003, dated 2008).
